According to patent EP4722216A1, “PYRROLOPYRIMIDINE DERIVATIVE AND USE THEREOF IN MEDICINE” (Kangbaida (Sichuan) Biotechnology Co., Ltd., priority 2023, dated 2024):

How the values were obtained:
[1] = Pharmacokinetic study in rats in vivo; details: SD rats; for F: intragastric 5 mg/kg versus intravenous 1 mg/kg; for AUC0-t / Cmax / half-life: male, rat, po, Plasma, intragastric administration 5 mg/kg
Protocol: An appropriate amount of the test substance was weighed and formulated into a 0.5 mg/mL transparent and clear solution using 10% DMSO + 5% HS-15 + 85% Saline for intravenous administration. The test substance was formulated into a 1 mg/mL uniform suspension using 10% DMSO + 5% HS-15 + 85% Saline for intragastric administration. 6 healthy male SD rats (Charles River, SPF grade) were taken, with 3 animals assigned to the intravenous group and three to the intragastric group, respectively. With 3 animals per time point, blood samples were collected via the jugular vein. Blood samples were collected at 5 min, 15 min, 0.5, 1, 2, 4, 8, and 24 h after intravenous administration of the test substance (1 mg/kg), and blood samples were collected at 15 min, 0.5, 1, 2, 4, 6, 8, and 24 h after intragastric administration of the test substance (5 mg/kg). After anticoagulation with EDTA-K2, the blood samples were centrifuged at 6000 g at 4°C for 5 min to separate plasma, and all plasma samples were stored at -70°C for testing. The drug concentration of the test substance in plasma was determined by LC-MS/MS method (with gliclazide as an internal standard), and the main pharmacokinetic parameters were calculated by Winnolin 8.3 non-compartment model. The intragastric administration results are as follows: […]

FGFR2 = target: T1, FGFR2 (Homo sapiens, UniProt P21802); test: FGFR1-4 enzymology, HTRF method (FGFR2); type: biochemical; details: FGFR2 0.08 nM, substrate (TK) 1 µM, ATP 20 µM
T1 construct: purchased Carna 08-134
Protocol: (§1) The inhibitory effects of compounds on the enzymatic activities of FGFR1, 2, 3, and 4 were detected by using HTRF method (PerkinElmer, 62TK0PEJ). 2× Enzyme and 2× substrate /ATP mixed solutions were prepared using a buffer solution. The final concentrations of FGFR1 enzyme (Cama, 08-133), the substrate (TK), and ATP were 0.10 nM, 1 µM, and 40 µM, respectively; the final concentrations of FGFR2 (Carna, 08-134), the substrate (TK), and ATP were 0.08 nM, 1 µM, and 20 µM, respectively; the final concentrations of FGFR3 (Cama, 08-135), the substrate (TK), and ATP were 0.30 nM, 1 µM, and 50 µM, respectively; and the final concentrations of FGFR4 (Carna, 08-136), the substrate (TK), and ATP were 10 nM, 1 µM, and 50 µM, respectively. The compound stock solution was diluted to 100× working concentration using DMSO. 50 nL/well of the compound was transferred to a 384-well plate using Echo, with 2 replicate wells per concentration. 2.5 µL/well of 2× kinase solution was added to reaction wells, mixed and incubated at 25°C for 10 min. 2.5 µL/well of 2× substrate/ATP solution was added to reaction wells and incubated at 25°C for 50 min. 2× Streptavidin-XL665/Cryptate-antibody mixed solution was prepared using a detection buffer solution (containing EDTA). 5 µL/well of a kinase detection reagent was added to the reaction wells and incubated at 25°C for 60 min. Fluorescence signals at 620 nm (Cryptate) and 665 nm (XL665) were read by a multifunctional microplate reader. IC50 (median inhibitory concentration) of the compound was calculated using the GraphPad nonlinear fitting formula, Y=Bottom + (Top-Bottom)/(1+10^((LogIC50-X) ×HillSlope)), in which X: the logarithmic value of the concentration of the compound; and Y: the inhibition rate of the compound (% inhibition).

[2] = Pharmacokinetic study on mouse brain tissue (plasma/cerebrospinal fluid/brain tissue); type: in vivo; details: ICR mice, intragastric administration 10 mg/kg; for Tmax / half-life: male, mouse, po
Protocol: An appropriate amount of the test substance was weighed and formulated into a 1 mg/mL transparent and clear solution using 10% DMSO + 5% HS-15 + 85% Saline for intragastric administration. 24 healthy male ICR mice (Charles River, SPF grade) were taken, with 3 animals per time point. Blood samples were collected at 15 min, 0.5, 1, 2, 4, 6, 8, and 24 h after intragastric administration of the test substance (10 mg/kg). The blood sample was anticoagulated with EDTA-K2 and then centrifuged at 6000 g at 4°C for 5 min to separate plasma. The plasma was stored at - 70°C for testing. After blood collection, the animal was sacrificed to collect cerebrospinal fluid, which was stored at -70°C for testing. The brain tissue was rinsed with ice-cold normal saline to remove the residual blood, blotted dry with absorbent paper, and then stored at -70°C for testing. The drug concentration of the specified compound in the plasma/cerebrospinal fluid/brain tissue was determined using LC-MS/MS method (with Gliclazide as an internal standard). The main pharmacokinetic parameters were calculated using a Winnolin 8.3 noncompartmental model.

FGFR3 = target: T2, FGFR3 (Homo sapiens, UniProt P22607); test: FGFR1-4 enzymology, HTRF method (FGFR3); type: biochemical; details: FGFR3 0.30 nM, substrate (TK) 1 µM, ATP 50 µM
T2 construct: purchased Carna 08-135
Protocol: as §1

FGFR1 = target: T3, FGFR1 (Homo sapiens, UniProt P11362); test: FGFR1-4 enzymology, HTRF method (FGFR1); type: biochemical; details: FGFR1 enzyme 0.10 nM, substrate (TK) 1 µM, ATP 40 µM
T3 construct: purchased Carna 08-133
Protocol: as §1

FGFR4 = target: T4, FGFR4 (Homo sapiens, UniProt P22455); test: FGFR1-4 enzymology, HTRF method (FGFR4); type: biochemical; details: FGFR4 10 nM, substrate (TK) 1 µM, ATP 50 µM
T4 construct: purchased Carna 08-136
Protocol: as §1

FGFR2 N549H = FGFR2 N549H (Homo sapiens, UniProt P21802, N549H); test: FGFR2 and FGFR3 mutant enzymology, HTRF method (FGFR2 N549H); type: biochemical; details: kinase 0.02 nM, substrate 1 µM, ATP 9 µM
Protocol: (§2) The inhibitory effects of the compounds on the enzymatic activities of FGFR2 and FGFR3 mutants by using HTRF method (PerkinElmer, 62TK0PEJ). 2× Enzyme and 2× substrate /ATP mixed solutions were prepared using a buffer solution.
(§3) The compound stock solution was diluted to 100× working concentration using DMSO. 50 nL/well of the compound was transferred to a 384-well plate using Echo, with 2 replicate wells per concentration. 2.5 µL/well of 2× kinase solution was added to reaction wells, mixed and incubated at 25°C for 10 min. 2.5 µL/well of 2× substrate/ATP solution was added to reaction wells and incubated at 25°C for 50 min. 2× Streptavidin-XL665/Cryptate-antibody mixed solution was prepared using a detection buffer solution (containing EDTA). 5 µL/well of a kinase detection reagent was added to the reaction wells and incubated at 25°C for 60 min. Fluorescence signals at 620 nm (Cryptate) and 665 nm (XL665) were read by a multifunctional microplate reader. According to the test results, the inhibition rate was calculated. […] IC50 (median inhibitory concentration) of the compound was calculated using the GraphPad nonlinear fitting formula, Y = Bottom + (Top-Bottom)/(1+10^((LogIC50-X) ×HillSlope)), in which X: the logarithmic value of the concentration of the compound; and Y: the inhibition rate of the compound (% inhibition).

FGFR2 V564F = FGFR2 V564F (Homo sapiens, UniProt P21802, V564F); test: FGFR2 and FGFR3 mutant enzymology, HTRF method (FGFR2 V564F); type: biochemical; details: kinase 0.02 nM, substrate 1 µM, ATP 15 µM
Protocol: as §2, §3

FGFR3 V555M = FGFR3 V555M (Homo sapiens, UniProt P22607, V555M); test: FGFR2 and FGFR3 mutant enzymology, HTRF method (FGFR3 V555M); type: biochemical; details: kinase 0.55 nM, substrate 1 µM, ATP 20 µM
Protocol: as §2, §3

FGFR3 K650M = FGFR3 K650M (Homo sapiens, UniProt P22607, K650M); test: FGFR2 and FGFR3 mutant enzymology, HTRF method (FGFR3 K650M); type: biochemical; details: kinase 0.10 nM, substrate 1 µM, ATP 12 µM
Protocol: as §2, §3

FGFR2 V564I = FGFR2 V564I (Homo sapiens, UniProt P21802, V564I); test: FGFR2 and FGFR3 mutant enzymology, HTRF method (FGFR2 V564I); type: biochemical; details: kinase 0.03 nM, substrate 1 µM, ATP 20 µM
Protocol: as §2, §3

T2 sequence (P22607 23-806): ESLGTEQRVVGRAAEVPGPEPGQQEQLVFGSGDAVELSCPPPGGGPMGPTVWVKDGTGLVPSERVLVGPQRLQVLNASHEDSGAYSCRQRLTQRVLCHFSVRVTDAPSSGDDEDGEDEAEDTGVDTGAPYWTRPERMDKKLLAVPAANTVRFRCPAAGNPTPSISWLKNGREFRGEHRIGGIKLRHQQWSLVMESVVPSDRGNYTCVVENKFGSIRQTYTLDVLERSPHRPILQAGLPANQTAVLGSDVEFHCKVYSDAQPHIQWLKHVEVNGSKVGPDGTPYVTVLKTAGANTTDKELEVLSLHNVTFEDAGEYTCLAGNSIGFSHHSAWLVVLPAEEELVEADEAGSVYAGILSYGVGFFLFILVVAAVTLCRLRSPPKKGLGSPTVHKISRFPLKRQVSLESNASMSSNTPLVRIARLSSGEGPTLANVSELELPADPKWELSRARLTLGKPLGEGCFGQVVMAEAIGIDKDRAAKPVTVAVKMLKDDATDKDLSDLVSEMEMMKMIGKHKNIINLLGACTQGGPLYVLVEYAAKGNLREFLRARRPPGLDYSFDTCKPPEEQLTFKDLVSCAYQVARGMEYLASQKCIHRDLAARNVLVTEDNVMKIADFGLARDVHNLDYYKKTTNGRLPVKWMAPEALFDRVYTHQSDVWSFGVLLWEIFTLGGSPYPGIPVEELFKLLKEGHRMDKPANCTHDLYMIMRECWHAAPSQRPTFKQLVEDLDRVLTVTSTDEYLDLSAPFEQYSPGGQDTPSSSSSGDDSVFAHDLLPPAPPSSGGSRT
T3 sequence (P11362 22-822): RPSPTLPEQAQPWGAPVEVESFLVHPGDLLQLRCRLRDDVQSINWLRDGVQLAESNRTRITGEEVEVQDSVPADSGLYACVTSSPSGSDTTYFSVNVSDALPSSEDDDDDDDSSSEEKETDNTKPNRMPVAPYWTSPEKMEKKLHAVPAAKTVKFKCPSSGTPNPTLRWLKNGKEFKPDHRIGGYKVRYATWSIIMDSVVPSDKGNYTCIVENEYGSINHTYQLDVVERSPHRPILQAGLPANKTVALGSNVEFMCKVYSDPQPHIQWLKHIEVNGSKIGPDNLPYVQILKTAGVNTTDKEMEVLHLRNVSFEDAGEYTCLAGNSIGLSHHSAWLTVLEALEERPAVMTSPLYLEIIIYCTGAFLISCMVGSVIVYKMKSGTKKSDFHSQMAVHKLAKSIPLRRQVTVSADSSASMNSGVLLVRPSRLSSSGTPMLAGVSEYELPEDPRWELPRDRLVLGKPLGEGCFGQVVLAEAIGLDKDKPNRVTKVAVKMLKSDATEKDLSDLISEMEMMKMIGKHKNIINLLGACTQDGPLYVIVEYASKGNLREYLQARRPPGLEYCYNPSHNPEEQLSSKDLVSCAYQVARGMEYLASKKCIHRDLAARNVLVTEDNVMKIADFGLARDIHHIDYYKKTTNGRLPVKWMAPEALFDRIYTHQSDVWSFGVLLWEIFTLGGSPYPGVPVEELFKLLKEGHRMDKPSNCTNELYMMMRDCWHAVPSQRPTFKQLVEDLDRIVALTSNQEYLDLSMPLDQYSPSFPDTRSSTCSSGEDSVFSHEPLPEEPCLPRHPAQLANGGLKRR
T4 sequence (P22455 22-802): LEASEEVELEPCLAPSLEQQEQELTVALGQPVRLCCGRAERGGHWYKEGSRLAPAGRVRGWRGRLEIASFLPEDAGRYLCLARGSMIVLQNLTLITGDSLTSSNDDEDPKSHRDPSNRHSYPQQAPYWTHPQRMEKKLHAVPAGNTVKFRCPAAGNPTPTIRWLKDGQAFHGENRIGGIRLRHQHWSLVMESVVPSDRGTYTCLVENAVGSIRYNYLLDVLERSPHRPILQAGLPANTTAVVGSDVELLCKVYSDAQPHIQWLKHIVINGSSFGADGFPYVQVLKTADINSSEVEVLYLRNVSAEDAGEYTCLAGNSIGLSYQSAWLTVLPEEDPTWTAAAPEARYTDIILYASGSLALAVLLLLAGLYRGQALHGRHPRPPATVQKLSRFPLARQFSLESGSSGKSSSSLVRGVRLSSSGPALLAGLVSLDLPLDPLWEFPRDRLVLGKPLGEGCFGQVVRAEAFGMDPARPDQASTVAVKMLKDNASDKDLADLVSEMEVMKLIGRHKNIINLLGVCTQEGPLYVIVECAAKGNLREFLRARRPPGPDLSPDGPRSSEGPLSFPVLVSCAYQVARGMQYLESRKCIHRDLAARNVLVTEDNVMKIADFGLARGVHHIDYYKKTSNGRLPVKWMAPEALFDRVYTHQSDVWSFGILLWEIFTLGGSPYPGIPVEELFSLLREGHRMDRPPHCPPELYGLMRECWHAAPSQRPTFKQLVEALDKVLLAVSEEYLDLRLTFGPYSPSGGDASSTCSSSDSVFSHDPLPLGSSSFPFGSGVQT
T1 sequence (P21802 22-821): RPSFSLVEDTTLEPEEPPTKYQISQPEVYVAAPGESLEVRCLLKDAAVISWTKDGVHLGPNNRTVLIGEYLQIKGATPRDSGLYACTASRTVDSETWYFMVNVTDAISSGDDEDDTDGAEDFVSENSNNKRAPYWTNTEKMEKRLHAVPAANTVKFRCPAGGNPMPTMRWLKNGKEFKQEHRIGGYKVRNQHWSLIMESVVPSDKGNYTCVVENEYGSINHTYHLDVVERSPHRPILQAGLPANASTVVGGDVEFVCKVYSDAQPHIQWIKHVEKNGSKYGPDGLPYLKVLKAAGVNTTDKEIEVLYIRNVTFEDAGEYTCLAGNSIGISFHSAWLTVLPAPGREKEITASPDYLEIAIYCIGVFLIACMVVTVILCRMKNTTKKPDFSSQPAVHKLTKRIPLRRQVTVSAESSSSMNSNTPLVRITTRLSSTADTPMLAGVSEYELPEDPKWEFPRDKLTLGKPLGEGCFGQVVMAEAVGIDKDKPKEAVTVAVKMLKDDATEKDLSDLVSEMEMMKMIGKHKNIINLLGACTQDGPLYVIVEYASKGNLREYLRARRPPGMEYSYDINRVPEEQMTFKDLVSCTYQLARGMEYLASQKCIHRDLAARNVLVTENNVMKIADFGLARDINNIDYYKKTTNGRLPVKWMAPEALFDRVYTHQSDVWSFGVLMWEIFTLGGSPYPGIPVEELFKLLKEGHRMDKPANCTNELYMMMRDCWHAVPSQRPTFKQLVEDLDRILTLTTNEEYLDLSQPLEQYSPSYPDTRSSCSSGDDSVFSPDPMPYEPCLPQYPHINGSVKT
Sequence of FGFR2 V564F (P21802 22-821 V564F): as the sequence (P21802 22-821) above, with V543F counted along it
Sequence of FGFR2 V564I (P21802 22-821 V564I): as the sequence (P21802 22-821) above, with V543I counted along it
Sequence of FGFR3 K650M (P22607 23-806 K650M): as the sequence (P22607 23-806) above, with K628M counted along it
Sequence of FGFR3 V555M (P22607 23-806 V555M): as the sequence (P22607 23-806) above, with V533M counted along it
Sequence of FGFR2 N549H (P21802 22-821 N549H): as the sequence (P21802 22-821) above, with N528H counted along it

Compound | F [1] [%] | AUC0-t [1] [ng·h/mL] | Cmax [1] [ng/mL] | half-life [1] [h] | IC50 (FGFR2) [nM] | AUC0-t ([2]; Brain tissue) | AUC0-t ([2]; Cerebrospinal fluid) | AUC0-t ([2]; Plasma) | Tmax ([2]; Brain tissue) [h] | half-life ([2]; Brain tissue) [h] | Tmax ([2]; Cerebrospinal fluid) [h] | Tmax ([2]; Plasma) [h] | half-life ([2]; Plasma) [h] | IC50 (FGFR3) [nM] | IC50 (FGFR1) [nM] | IC50 (FGFR4) [nM] | further results
C=C(C(=O)Nc1ccc(-c2c(-c3ccc(Oc4nccc(C)n4)c(F)c3)c3c(N)ncnc3n2C)cc1)C1CC1 [Compound 1, N-(4-(4-amino-5-(3-fluoro-4-((4-methylpyrimidin-2-yl)oxy)phenyl)-7-methyl-7H-pyrrolo[2,3-d]pyrimidin-6-yl)phenyl]-2-cyclopropylacrylamide] | 90.8 | 3190 | 938 | 1.9 | 23.8 | 524 h*ng/mL or h*ng/g | 59 h*ng/mL or h*ng/g | 50857 h*ng/mL or h*ng/g | 1 | 3 | 0.5 | 1 | 3.1 | > 1000 | > 1000 | > 1000 | half-life ([2]; Cerebrospinal fluid): 6.3 h
C=C(C(=O)Nc1ccc(-c2c(-c3ccc(Oc4nccc(C)n4)c(F)c3)c3c(N)ncnc3n2C)cn1)C1CC1 [Compound 2, N-(5-(4-amino-5-(3-fluoro-4-((4-methylpyrimidin-2-yl)oxy)phenyl)-7-methyl-7H-pyrrolo[2,3-d]pyrimidin-6-yl)pyridin-2-yl]-2-cyclopropylacrylamide] |  |  |  |  | 12 |  |  |  |  |  |  |  |  | 149 | 407 | > 1000 | 
C=C(C(=O)Nc1ccc(-c2c(-c3ccc(Oc4nccc(C)n4)c(F)c3)c3c(N)ncnc3n2C)c(Cl)c1)C1CC1 [Compound 4, N-(4-(4-amino-5-(3-fluoro-4-((4-methylpyrimidin-2-yl)oxy)phenyl)-7-methyl-7H-pyrrolo[2,3-d]pyrimidin-6-yl)-3-chlorophenyl)-2-cyclopropylacrylamide] | 24.2 | 787 | 273 | 0.9 | 1.7 | 277 h*ng/mL or h*ng/g | 9 h*ng/mL or h*ng/g | 21966 h*ng/mL or h*ng/g | 1 | 1.7 | 1 | 0.5 | 1.8 | 64.2 | 165 | > 1000 | IC50 (FGFR2 N549H): 5.2 nM; IC50 (FGFR2 V564F): 0.5 nM; IC50 (FGFR3 V555M): 120 nM; IC50 (FGFR3 K650M): 271 nM; IC50 (FGFR2 V564I): 15 nM
C=C(C(=O)Nc1ccc(-c2c(-c3ccc(Oc4nccc(C)n4)c(F)c3)c3c(N)ncnc3n2C)c(F)c1)C1CC1 [Compound 5, N-(4-(4-amino-5-(3-fluoro-4-((4-methylpyrimidin-2-yl)oxy)phenyl)-7-methyl-7H-pyrrolo[2,3-d]pyrimidin-6-yl)-3-fluorophenyl)-2-cyclopropylacrylamide] |  |  |  |  | 7.3 |  |  |  |  |  |  |  |  | 246 | 550 | > 1000 | 
C=C(C(=O)Nc1ccc(-c2c(-c3ccc(Oc4cccc(Cl)n4)c(F)c3)c3c(N)ncnc3n2C)cc1)C1CC1 [Compound 9, N-(4-(4-amino-5-(4-((6-chloropyridin-2-yl)oxy)-3-fluorophenyl)-7-methyl-7H-pyrrolo[2,3-d]pyrimidin-6-yl)phenyl)-2-cyclopropylacrylamide] |  |  |  |  | 65.5 |  |  |  |  |  |  |  |  | > 1000 | > 1000 | > 1000 | 
